What all share (format): in vivo
Data set [1] relates to Musca domestica. The data set is described as follows: Musca domestica test. As to conditions: application rate of 100 ppm; adults, sugar sponge; after 2 days. Here is the method: (§1) Solvent: dimethyl sulfoxide
To produce a suitable preparation of active compound, 10 mg of active compound are dissolved in 0.5 ml solvent, and the concentrate is diluted with water to the desired concentration. Prior to the assay, a piece or kitchen sponge is soaked with a mixture of sugar and compound solution and placed into a container. 10 adults (Musca domestica) are placed into the container and closed with a perforated lid. After 2 days mortality in % is determined. 100% means that all the flies have been killed; 0% means that none of the flies have been killed.

Data set [2] deals with tobacco cutworm (Spodoptera litura) larvae. The data set is described as follows: Test against tobacco cutworm (Spodoptera litura) larvae, leaf dip. As to conditions: active compound concentration of 100 ppm; third-instar larvae on sweet potato leaves; after 7 days. Here is the method: (§2) Unless not mentioned otherwise, the test solutions were prepared as follows:
(§3) Containing as solvent: Dimethylformamide, 3 parts by weight; and as emulsifier: Polyoxyethylene alkyl phenyl ether, 1 part by weight
(§4) To prepare the test solution, 1 part by weight of an active compound is mixed with the above-mentioned amount of solvent containing the above-mentioned amount of emulsifier, and the mixture is diluted with water to the desired concentration.
The leaves of sweet potato were immersed in the test solution at the appropriate concentration, and the leaves were dried in air. The leaves were then placed in a petri dish having a diameter of 9 cm, and ten third-instar larvae of tobacco cutworm were released therein. The petri dish was placed in a temperature-controlled chamber at 25° C. After 2 days and 4 days sweet potato leaves were additionally added. After 7 days, the number of dead larvae was counted to calculate the insecticidal activity. An insecticidal activity of 100% means that all larvae were killed, whereas an insecticidal activity of 0% means that no larva was killed. In the current test, the results of two petri dishes for each partition were averaged.

The test system of data set [3] is cucurbit leaf beetle (Aulacophora femoralis). In words: Test against cucurbit leaf beetle (Aulacophora femoralis), leaf dip. As to conditions: active compound concentration of 100 ppm; second-instar larvae on cucumber leaves; after 7 days. Here is the method: as §2, §3, §4
Cucumber leaves were immersed in the test solution at the appropriate concentration, and the leaves were dried in air. The leaves were then placed in a plastic cup containing sterilized black soil, and five second-instar larvae of cucurbit leaf beetle were released therein. The plastic cup was placed in a temperature-controlled chamber at 25° C. After 7 days, the number of dead larvae was counted, and thus the insecticidal activity was calculated. An insecticidal activity of 100% means that all beetles were killed, whereas an insecticidal activity of 0% means that no beetle was killed.

Data set [4] has as its system Ctenocephalides felis. The data set is described as follows: Ctenocephalides felis test (CTECFE), blood feeding. Conditions: application rate of 100 ppm in cattle blood; adult unfed fleas; after 2 days. Here is the method: as §1
To produce a suitable preparation of active compound, 10 mg of active compound are dissolved in 0.5 ml solvent, and the concentrate is diluted with cattle blood to the desired concentration.
Approximately 10 to 15 adult unfed (Ctenocepahlides felis) are placed in flea chambers. The blood chamber, are sealed with paraffin on the bottom are filled with cattle blood supplied with compound solution and placed on top of the flea chamber, so that the fleas are able to suck the blood. The blood chamber is heated to 37° C. whereas the flea chamber is kept at room temperature. After 2 days mortality in % is determined. 100% means that all the fleas have been killed; 0% means that none of the fleas have been killed.

Data set [5] has as its system two-spotted spider mite (Tetranychus urticae). The data set is described as follows: Test against two-spotted spider mite (Tetranychus urticae), spray. Conditions: concentration of 100 ppm; adult mites on kidney beans; after 7 days. The method, then:
as §2, §3, §4
50 to 100 adult two-spotted spider mites were inoculated onto the leaves of kidney beans at the two-true leaf stage, which plant had been cultivated in a pot having a diameter of 6 cm. After one day, test solution at the appropriate concentration was sprayed thereon in a sufficient amount using a spray gun. After the spraying, the plant pot was placed inside a greenhouse, and after 7 days, the acaricidal activity was calculated. An acaricidal activity of 100% means that all mites were killed, whereas an acaricidal activity of 0% means that no mite was killed.

SMILES strings stand for the structures.

As for `CCOC(=O)Nc1cccc(C(=O)Nc2c(I)cc(C(OCC)(C(F)(F)F)C(F)(F)F)cc2I)c1` [1-24], the “activity (mortality in %)” value in data set [1] is recorded as 90%. The compound also showed an insecticidal activity in data set [2] of 100%.

Consider `CCOC(c1cc(I)c(NC(=O)c2cccc(NC(=O)c3ccccc3)c2)c(I)c1)(C(F)(F)F)C(F)(F)F` [1-25], for which the figures for the “activity (mortality in %)” value in data set [1] and in data set [4] were 80% and 90%, respectively. In addition, the insecticidal activity in data set [3] and in data set [2] was 100% in each case.

On to `CCOC(c1cc(I)c(NC(=O)c2cccc(NC(=O)c3ccccc3F)c2)c(I)c1)(C(F)(F)F)C(F)(F)F` [1-26], for which the “activity (mortality in %)” value in data set [1] was found to be 90%; in data set [4], 100%. Further, the insecticidal activity in data set [3] and in data set [2] was 100% in each case.

For `CCOC(c1cc(I)c(NC(=O)c2cccc(NC(=O)c3ccc(F)cc3)c2)c(I)c1)(C(F)(F)F)C(F)(F)F` [1-28], the insecticidal activity in data set [3] and in data set [2] was 100% each time. The same compound returned an acaricidal activity rate in data set [5] of 100%.

Turning to `CCOC(c1cc(I)c(NC(=O)c2cccc(NC(=O)c3cccnc3F)c2)c(I)c1)(C(F)(F)F)C(F)(F)F` [1-59], the “activity (mortality in %)” value in data set [1] turned out to be 100%; in data set [4], 95%. Also, the insecticidal activity in data set [3] and in data set [2] was 100% throughout.

With `CCOC(c1cc(I)c(NC(=O)c2cccc(NC(=O)c3ccc(Cl)nc3Cl)c2)c(I)c1)(C(F)(F)F)C(F)(F)F` [1-61], the insecticidal activity in data set [3] was 100%. Moreover, in data set [5], the acaricidal activity rate is listed as 100%.

On to `CCCOC(c1cc(I)c(NC(=O)c2cccc(NC(=O)c3ccc(Cl)nc3Cl)c2)c(I)c1)(C(F)(F)F)C(F)(F)F` [1-64], for which, in data set [5], the acaricidal activity rate was determined as 100%.

Consider `CCc1cc(C(OCC2CC2)(C(F)(F)F)C(F)(F)F)cc(C)c1NC(=O)c1cccc(NC(=O)c2cccnc2Cl)c1` [1-66], for which the insecticidal activity in data set [3] and in data set [2] was 100% throughout. Moreover, in data set [5], the acaricidal activity rate is 100%.

With `C#CCOC(c1cc(I)c(NC(=O)c2cccc(NC(=O)c3cccnc3Cl)c2)c(I)c1)(C(F)(F)F)C(F)(F)F` [1-80], the “activity (mortality in %)” value is 100% in data set [1] and 80% in data set [4]. In addition, the insecticidal activity in data set [2] was found to be 100%.

As to `CCc1cc(C(Oc2ccc(Cl)cc2)(C(F)(F)F)C(F)(F)F)cc(C)c1NC(=O)c1cccc(NC(=O)c2cccnc2Cl)c1` [1-109], the insecticidal activity in data set [3] and in data set [2] was 100% in each case. In data set [5], this compound displayed an acaricidal activity rate of 100%.

Regarding `CCc1cc(C(n2cccc2)(C(F)(F)F)C(F)(F)F)cc(C)c1NC(=O)c1cccc(NC(=O)c2cccnc2Cl)c1` [2-1], the insecticidal activity in data set [3] and in data set [2] was 100% throughout. For the same compound, the acaricidal activity rate in data set [5] is given as 100%.

As for `Cc1cc(C(n2cc(F)cn2)(C(F)(F)F)C(F)(F)F)cc(C)c1NC(=O)c1cccc(NC(=O)c2cccnc2Cl)c1` [2-6], the insecticidal activity in data set [3] and in data set [2] was 100% in each case. The same compound came in with an acaricidal activity rate in data set [5] of 100%.

In the case of `O=C(Nc1c(Br)cc(C(CF)(n2cc(Cl)cn2)C(F)(F)F)cc1Br)c1cccc(NC(=O)c2cccnc2Cl)c1` (stereo not shown) [2-24], the insecticidal activity in data set [3] and in data set [2] was 100% each time. For the same compound, in data set [5], the acaricidal activity rate was 100%.

The compound `CCc1cc(C(n2cc(Cl)cn2)(C(F)(F)F)C(F)(F)F)cc(C)c1NC(=O)c1cccc(NC(=O)c2cccnc2)c1` [2-42] showed an acaricidal activity rate in data set [5] of 100%.

For `Cc1cc(C(n2cc(Cl)cn2)(C(F)(F)F)C(F)(F)F)cc(C)c1NC(=O)c1cccc(NC(=O)c2cccnc2Cl)c1` [2-51], in data set [4], the “activity (mortality in %)” value worked out at 100%. In data set [5], the acaricidal activity rate was 100%. Also, the insecticidal activity in data set [2] is reported as 100%.

With `CCc1cc(C(n2cc(Cl)cn2)(C(F)(F)F)C(F)(F)F)cc(C)c1NC(=O)c1cccc(NC(=O)c2cccnc2Cl)c1` [2-55], the insecticidal activity in data set [3] and in data set [2] was 100% each time. This compound also registered an acaricidal activity rate in data set [5] of 100%.

Regarding `O=C(Nc1c(Br)cc(C(n2cc(Cl)cn2)(C(F)(F)F)C(F)(F)F)cc1Br)c1cccc(NC(=O)c2cccnc2Cl)c1` [2-62], the insecticidal activity in data set [3] and in data set [2] was 100% in each case. Further, the acaricidal activity rate in data set [5] is on record as 100%.

For the compound `CCc1cc(C(n2cc(Br)cn2)C(F)(F)F)cc(C)c1NC(=O)c1cccc(NC(=O)c2cccnc2Cl)c1` (stereo not shown) [2-77], the “activity (mortality in %)” value in data set [4] amounted to 90%. In data set [2], this compound yielded an insecticidal activity of 100%.

In the case of `CC(c1cc(Br)c(NC(=O)c2cccc(NC(=O)c3cccnc3F)c2)c(Br)c1)(n1cc(Br)cn1)C(F)(F)F` (stereo not shown) [2-82], the insecticidal activity in data set [3] and in data set [2] was 100% throughout. This compound also showed an acaricidal activity rate in data set [5] of 100%.

As for `CC(c1cc(Br)c(NC(=O)c2cccc(NC(=O)c3cccnc3Cl)c2)c(Br)c1)(n1cc(Br)cn1)C(F)(F)F` (stereo not shown) [2-83], the insecticidal activity in data set [3] and in data set [2] was 100% throughout. In data set [5], this compound displayed an acaricidal activity rate of 100%.

Turning to `Cc1cc(C(n2cc(Br)cn2)(C(F)(F)F)C(F)(F)F)cc(C)c1NC(=O)c1cccc(NC(=O)c2cccnc2Cl)c1` [2-84], in data set [4], the “activity (mortality in %)” value is 95%. This compound gave an acaricidal activity rate in data set [5] of 100%. The compound also showed an insecticidal activity in data set [2] of 100%.

For the compound `Cc1cc(C(n2cc(C(F)(F)F)cn2)C(F)(F)F)cc(C)c1NC(=O)c1cccc(NC(=O)c2cccnc2F)c1` (stereo not shown) [2-103], the insecticidal activity in data set [3] and in data set [2] was 100% each time. The “activity (mortality in %)” value in data set [4] is reported as 95%.

Consider `Cc1cc(C(n2cc(C(F)(F)F)cn2)(C(F)(F)F)C(F)(F)F)cc(C)c1NC(=O)c1cccc(NC(=O)c2cccnc2F)c1` [2-108], for which the insecticidal activity in data set [3] and in data set [2] was 100% each time. The “activity (mortality in %)” value in data set [4] is listed as 100%.

In the case of `Cc1cc(C(n2cc(C(F)(F)F)cn2)(C(F)(F)F)C(F)(F)F)cc(C)c1NC(=O)c1cccc(NC(=O)c2cccnc2Cl)c1` [2-109], the insecticidal activity in data set [3] and in data set [2] was 100% throughout. In data set [4], the “activity (mortality in %)” value is reported as 100%.

As for `Cc1cc(C(N=[N+]=[N-])(C(F)(F)F)C(F)(F)F)cc(C)c1NC(=O)c1cccc(NC(=O)c2cccnc2Cl)c1` [2-145], the insecticidal activity in data set [3] and in data set [2] was 100% in each case. Besides, in data set [5], the acaricidal activity rate was determined as 100%.

For `Cc1cc(C(n2cncn2)(C(F)(F)F)C(F)(F)F)cc(C)c1NC(=O)c1cccc(NC(=O)c2cccnc2Cl)c1` [2-148], the “activity (mortality in %)” value in data set [4] is 95%.

With `Cc1cc(C(n2cncn2)(C(F)(F)F)C(F)(F)F)cc(Br)c1NC(=O)c1cccc(NC(=O)c2ccccc2F)c1` [2-151], the “activity (mortality in %)” value in data set [4] stood at 90%.

On to `CCc1cc(C(C#N)(C(F)(F)F)C(F)(F)F)cc(C)c1NC(=O)c1cccc(NC(=O)c2cccnc2Cl)c1` [4-5], for which the insecticidal activity in data set [3] and in data set [2] was 100% throughout. The same compound registered an acaricidal activity rate in data set [5] of 100%.

The record behind these values is US20110201603A1, “Novel Acylaminobenzamide Derivatives” (Bayer CropScience AG, priority 2008, published 2011).
